Laboratory results as given in publication PMC7551886, “Antitumour Effects of Astaxanthin and Adonixanthin on Glioblastoma” (Marine Drugs, 2020).

Columns and labels:
[1] = system: GL261 cells (intracranial injection); experiment: Murine orthotopic glioblastoma model; format: in vivo, mouse; conditions: oral 10 and 30 mg/kg for 10 days, 2 weeks after GL261 cell injection
Protocol: Murine glioblastoma cell (GL261) transplantation was performed as previously described. Briefly, mice received an intracranial injection of 1 × 10^5 cells in 2 µL of PBS using a Hamilton microliter syringe at the following coordinates: 1 mm anterior, 2 mm lateral (left of middle) to bregma, at a depth of 3 mm from the dural surface. This protocol was completed using a stereotactic frame. In the experiment of the murine orthotopic glioblastoma model, oral administration of each astaxanthin (10 and 30 mg/kg) and adonixanthin (10 and 30 mg/kg) was initiated 3 days after intracranial injection of GL261 cells and was continued for 10 days. In the experiment of the brain tissue absorption with oral astaxanthin or adonixanthin, after one week of adaptation, ICR mice were randomly divided into the following three groups: control group, astaxanthin group (50 mg/kg), and adonixanthin group (50 mg/kg). Mice were orally administered each reagent suspended in olive oil (5 mL/kg) by the daily single dose for 10 days. The control group was treated by olive oil alone (5 mL/kg). Mice were euthanized and […] perfused with cold saline for 2 min at room temperature. […] Pictures were taken using an All-in-One Fluorescence Microscope (BZ-X710; Keyence, Osaka, Japan). We assessed the maximum cross-sectional area of the tumour and tumour volume as described previously.

[2] = system: fibronectin; experiment: Immunoblotting, fibronectin expression in GL261; format: cell-based, mouse; conditions: GL261, 10 µM, 48 h
Protocol: GL261 cell was seeded at 2.5 × 10^4 cells per well in 24-well plates with culture medium supplemented with 10% FBS. After 24 h of incubation, the medium was changed to DMEM containing 10% FBS and 0.1%DMSO PBS, 300 μM temozolomide, 10 μM astaxanthin, or 10 μM adonixanthin was added for 6 and 48 h. Cells were lysed in a special buffer (RIPA buffer R0278; Sigma-Aldrich, St. Louis, MO, USA) with a protease inhibitor cocktail (Sigma-Aldrich), phosphatase inhibitor cocktails 2 and 3 (Sigma-Aldrich), and sample buffer (Wako, Osaka, Japan). The protein concentration was determined by comparison with a known concentration of bovine serum albumin using the BCA Protein Assay Kit (Thermo Fisher Scientific). The amount of total protein was 2 μg. […] The band intensity was […] using an Immuno Star LD (Wako). Band intensity was measured using an LAS-4000 UV mini Luminescent Image Analyzer (Fujifilm, Tokyo Japan) and Multi Gauge Version 3.0 (Fujifilm). The phosphorylation of ERK1/2, Akt, and p38 MAPK was measured by normalizing against total ERK1/2, total Akt, and total p38 MAPK. […]

[3] = system: hippocampal inflammation; design: method as in PMID 28017669; conditions: diabetic mice, oral 25 mg/kg ref 45; cited from earlier work
[4] = Body weight of mice during administration; format: in vivo, mouse
Protocol: In the experiment of the murine orthotopic glioblastoma model, oral administration of each astaxanthin (10 and 30 mg/kg) and adonixanthin (10 and 30 mg/kg) was initiated 3 days after intracranial injection of GL261 cells and was continued for 10 days. In the experiment of the brain tissue absorption with oral astaxanthin or adonixanthin, after one week of adaptation, ICR mice were randomly divided into the following three groups: control group, astaxanthin group (50 mg/kg), and adonixanthin group (50 mg/kg). Mice were orally administered each reagent suspended in olive oil (5 mL/kg) by the daily single dose for 10 days. The control group was treated by olive oil alone (5 mL/kg).

[5] = known; no reference given; cited from earlier work

SMILES	tumour enlargement (tumour area and volume) [1]	expression of fibronectin [2]	hippocampal inflammation [3]	changes in body weight ([4]; 10 days of administration)	body weight of treated mice ([4]; after 10 days of administration, vehicle 34.72 ± 2.05 g) [g]	dose that does not show adverse effects even with long-term administration [5] [mg/kg]
CC1=C(/C=C/C(C)=C/C=C/C(C)=C/C=C/C=C(C)/C=C/C=C(C)/C=C/C2=C(C)C(=O)[C@@H](O)CC2(C)C)C(C)(C)C[C@H](O)C1 [Adonixanthin, adonixanthin]	significantly suppressed tumour enlargement	decreased	–	–	–	–
CC1=C(/C=C/C(C)=C/C=C/C(C)=C/C=C/C=C(C)/C=C/C=C(C)/C=C/C2=C(C)C(=O)[C@@H](O)CC2(C)C)C(C)(C)C[C@H](O)C1=O [Astaxanthin, astaxanthin]	significantly suppressed tumour enlargement	–	inhibited hippocampal inflammation	No significant changes	35.50 ± 1.95	50
